Laboratory results published in ChEMBL document CHEMBL1154483, “Mechanistic aspects of benzothiazepines: a class of antiarrhythmic drugs” (Eur J Med Chem, 2009).

Assay: Inhibition of calcium channel

Row | Compound | IC50
1 | COc1ccc([C@@H]2Sc3ccccc3N(CCN(C)CCc3ccc(OC)c(OC)c3)C(=O)[C@@H]2OC(C)=O)cc1 | 6.5 nM
2 | COc1ccc([C@@H]2Sc3ccccc3N(CCN(C)C)C(=O)[C@@H]2OC(C)=O)cc1 [DILTIAZEM] | 337 nM
